Experimental data published in patent US12011447B2, “Pharmaceutical composition for treating thyroid cancer comprising tyrosine kinase activity inhibitor as active ingredient” (Kyungpook National University Industry-Academic Cooperation …, priority 2017, dated 2024).

What was measured:
[1] = tested on: anaplastic thyroid cancer xenograft (8505C-PNIS-PCMV); assay: Tumor growth inhibition in xenograft mice (tumor size, R-luc BLI); format: in vivo, Balb/c nude mice
Protocol: Female Balb/c nude mice, 5.5-week old with an average weight of 18.9±0.37 g (mean±standard deviation [SD]), were purchased (Hamamatsu, Shizuoka, Japan). The mice were acclimated under specific pathogen-free conditions for one week before starting the experiment, and were maintained at a temperature of 20 to 25° C. and a relative humidity of 40 to 70%. To establish anaplastic thyroid cancer xenograft mouse models, 8505C-PNIS-PCMV s (5×10^6) were mixed with Matrigel (Corning) at a ratio of 1:1 and injected subcutaneously into the right flank region of each mouse.
In addition, in order to evaluate the effect of TKI-0266 administration on the treatment of thyroid cancer, mice for use in the experiment were divided into four groups (n=5): the vehicle group; the ^131I-administered group (injected intraperitoneally with 1 mCi Na-^131I on day 2 of the experiment; the TKI-0266-administered group (injected intraperitoneally with 50 mg/kg of TKI-0266 for 5 days); and the group co-administered with ^131I and TKI-0266 (injected intraperitoneally with 50 mg/kg of TKI-0266 for 5 days, and injected intravenously with 1 mCi Na-^131I on day 2; n=5). To measure the degree of tumor growth, h-coelenterazine (15 μg/ml) was administered to the mice by intravenous injection, and then the R-luc activity was monitored by BLI every 5 days.

cleaved caspase-3 = assay: Immunohistochemistry of cleaved caspase-3 in tumor tissue; format: in vivo, Balb/c nude mice; details: co-administered with 131I and TKI-0266
Source text: At the end of the experiment, the mice were sacrificed, and the tumors were isolated from the mouse's right flank and fixed overnight with 4% formalin. The isolated tumors were embedded in paraffin, sectioned to a 4-μm thickness, and mounted on slides. The tumor sections on the slides were de-paraffinized and stained with hematoxylin & eosin. For immunohistochemistry, NIS (Thermo Fisher Scientific; diluted at 1:200) and cleaved caspase-3 (Cell signaling; diluted at 1:200) antibodies were used.

NIS = assay: Immunofluorescence microscopy of NIS; format: cell-based, human; details: anaplastic thyroid cancer cells, 24 hours
Protocol: 8505C cells were seeded in a plate at a density of 2×10^5 cells and treated with the TKI inhibitor TKI-0266. After 24 hours, the cells were fixed with 4% paraformaldehyde for 30 minutes at room temperature and washed three times with PBS for 10 minutes each wash. Next, the cells were treated with PBS containing 0.7% Triton for 10 minutes at room temperature and quenched with PBS containing 50 mM NH4Cl for 10 minutes at room temperature. The cells were washed three times with PBS for 5 minutes each wash, and then blocked with 5% BSA-containing PBS and incubated with anti-NIS primary antibody (diluted at 1:50; Abcam, UK) overnight at 4° C. The next day, the cells were washed three times with PBS for 10 minutes each wash and incubated with Alexa-Fluor 488-conjugated secondary antibody (diluted at 1:300; Thermo Fisher Scientific) 1 hour. After 1 hour, the cells were washed three times with PBS for 10 minutes for each wash, and mounted on a coverslip using a Vecta mounting medium (Vector Laboratories, USA) containing 4′,6-diamidino-2-phenylindole (DAPI). NIS staining was observed by confocal laser microscopy (Zeiss, LSM 5 exciter, Germany).

[2] = tested on: NIS (sodium iodide symporter); assay: Western blot of endogenous NIS protein (total, membrane, cytosolic); format: cell-based, human
Protocol: (§1) 8505C-PNIS-PCMV cells were treated with TKI-0266 and incubated for 24 hours, and then the cell pellet was washed twice with cold phosphate-buffered saline (hereinafter referred to as PBS). An RIPA buffer (Thermo Fisher Scientific, USA) containing a protease/phosphatase cocktail inhibitor kit (Thermo Fisher Scientific) was added to the cell pellet to lyse the cells. The lysed cells were gently vortexed three times at a time interval, and centrifuged at 13000xg at 4° C. to isolate a soluble protein. The isolated protein was quantified using a BCA protein assay kit (Thermo Fisher Scientific).
Membrane protein and cytosolic protein were isolated using Mem-PET™ plus kit (Thermo Fisher scientific) according to the manufacturer's protocols. Briefly, the collected cell pellet was washed with a cell wash solution and centrifuged at 300xg for 5 minutes, and this washing and centrifugation process was repeated two times. After centrifugation, the supernatant was discarded, and a permeabilization buffer was added to the cell pellet, followed by vortexing. Thereafter, the cell pellet was left to stand at 4° C. for 10 minutes with continuous stirring. After centrifugation, the supernatant containing cytosolic protein was collected, and a solubilization buffer was added to the remaining cell pellet which was then left to stand at 4° C. for 10 minutes with continuous stirring. After centrifugation again at 300xg for 5 minutes, the membrane protein was transferred into a fresh tube.
(§2) Equal amounts of proteins were separated by 10% SDS-PAGE (sodium dodecyl sulfate-polyacrylamide gel electrophoresis), and then the proteins were transferred to PVDF membranes (Millipore, USA). The PVDF membrane was blocked with 3% BSA (bovine serum albumin) in TBS containing Tween-20 (TBS-T) for 1 hour, and incubated with primary antibodies in 0.5% BSA overnight at 4° C. The next day, the PVDF membrane was incubated with HRP-conjugated secondary antibodies at room temperature for 1 hour, and washed three times with TBS-T. The protein bands were visualized using ECL detection reagent (GE Healthcare Life Sciences, Italy) and the Fusion FX chemiluminescence analyzer system (Vilber lourmat, France). […]

p-AKT = assay: Western blot of phosphorylated AKT; format: cell-based, human; details: 8505C-PNIS-PCMV cells
Protocol: as §1, §2

Cc1cc2c(N(C)C3CCCCC3)ncnc2s1 [TKI-0266]
tumor growth rate compared to vehicle group and 131I alone group ([1]; TKI-0266 alone, 50 mg/kg for 5 days): slow tumor growth rate | tumor growth inhibitory effect among the four experimental groups ([1]; co-administered with 131I and TKI-0266): best tumor growth inhibitory effect | R-luc signal intensity ([1]; co-administered with 131I and TKI-0266, day 6 after administration): decreased | R-luc signal intensity ([1]; co-administered with 131I and TKI-0266, day 11 after administration): restored | tumor size on days 6 and 11 ([1]; single agent administration): increase | expression of cleaved caspase-3 indicating cell death (immunohistochemistry) (cleaved caspase-3): the highest | expression of endogenous NIS (immunofluorescence) (NIS): robust | expression of endogenous NIS protein ([2]; 8505C-PNIS-PCMV cells, 24 hours, Western blot): significantly increased | treatment concentration with the highest NIS protein expression ([2]; 8505C-PNIS-PCMV cells, Western blot): 12.5 µM | expression of cytosolic NIS protein ([2]; cytosolic protein fraction): uptick | expression of membrane NIS protein ([2]; membrane protein fraction): increased mainly in the cell membrane | level of phosphorylated-AKT (p-AKT) protein vs vehicle (p-AKT): little difference
